Reference: patent publication US20190262330A1, “Method of Treating Hepatocellular Carcinoma Using N-(4-(6,7-dimethoxyquinolin-4-yloxy)phenyl)-N′-(4-fluorophenyl)cyclopropane-1,1-dicarboxamide, (2S)-hydroxybutanedioate” (Exelixis, Inc., priority 2017, published 2019)

Assays:
[1] = Solubility in aqueous media; format: physicochemical
[2] = system: patients with advanced renal cell carcinoma; assay: METEOR trial, safety; format: in vivo, human
Description: Patients on both arms who had disease progression could continue treatment at the discretion of the investigator [see Clinical Studies (14)].

[3] = system: advanced RCC after prior anti-angiogenic therapy; assay: METEOR trial, efficacy; format: in vivo, human
Description: Patients were stratified by the number of prior VEGFR tyrosine kinase inhibitors (TKIs) and Memorial Sloan Kettering Cancer Center (MSKCC) Risk Group. […] The majority of the patients were male (75%), with a median age of 62 years. Sixty-nine percent (69%) received only one prior anti-angiogenic therapy. […] The main efficacy outcome measure was progression-free survival (PFS) assessed by a blinded independent radiology review committee among the first 375 subjects randomized. Other efficacy endpoints were objective response rate (ORR) and overall survival (OS) in the Intent-to-Treat (ITT) population. Tumor assessments were conducted every 8 weeks for the first 12 months, then every 12 weeks thereafter. Patients received treatment until disease progression or experiencing unacceptable toxicity. Patients on both arms who had disease progression could continue treatment at the discretion of the investigator.

[4] = system: sorafenib-tolerant patients with hepatocellular carcinoma; settings: in vivo; cited from earlier work
[5] = system: advanced RCC without prior therapy; assay: CABOSUN trial, efficacy; format: in vivo, human; settings: ITT
Description: All patients were required to have intermediate or poor risk disease as defined by the International Metastatic RCC Database Consortium (IMDC) risk group categories. Patients were stratified by IMDC risk group and presence of bone metastases (yes/no).
The major efficacy outcome measure was progression-free survival (PFS) by a retrospective blinded independent radiology review committee (BIRC).

[6] = system: patients with advanced renal cell carcinoma; assay: CABOSUN trial, safety; format: in vivo, human
[7] = system: patients who have not received prior systemic therapy; settings: in vivo; cited from earlier work

## COc1cc2nccc(Oc3ccc(NC(=O)C4(C(=O)Nc5ccc(F)cc5)CC4)cc3)c2cc1OC.O=C(O)C[C@H](O)C(=O)O [Cabozantinib (S)-malate salt]
[1]
  Solubility: practically insoluble

## CO[C@H]1C[C@@H]2CC[C@@H](C)[C@@](O)(O2)C(=O)C(=O)N2CCCC[C@H]2C(=O)O[C@H]([C@H](C)C[C@@H]2CC[C@@H](OCCO)[C@H](OC)C2)CC(=O)[C@H](C)/C=C(\C)[C@@H](O)[C@@H](OC)C(=O)[C@H](C)C[C@H](C)/C=C/C=C/C=C/1C [Everolimus, everolimus]
[2]; METEOR
  Adverse reactions leading to study treatment being held: 59%
  Adverse reactions leading to study treatment discontinuation: 10%
[2]; METEOR adverse reaction
  Palmar-plantar erythrodysesthesia, All Grades: 6%
  Palmar-plantar erythrodysesthesia, Grade 3-4: <1%
[3]; ITT
  Confirmed ORR, partial responses only: 3%
[3]; first 375 randomized
  Median PFS (95% CI): 3.8 (3.7, 5.4) months

## CNC(=O)c1cc(Oc2ccc(NC(=O)Nc3ccc(Cl)c(C(F)(F)F)c3)c(F)c2)ccn1 [Regorafenib]
[4]
  Overall survival compared with placebo: improved overall survival

## CCN(CC)CCNC(=O)c1c(C)[nH]c(/C=C2\C(=O)Nc3ccc(F)cc32)c1C [Sunitinib, sunitinib]
[5]
  Overall survival events: (60) %
[5]; BIRC
  Confirmed ORR, partial responses only: 9%
  Median PFS: 5.3 months
  Progression-free survival events: (63) %
[6]; CABOSUN
  Deaths within 30 days of treatment: 6 deaths
[6]; human, in vivo
  ALT increased, Grade 3-4: 0%
  AST increased, Grade 3-4: 3%
  Anemia, Grade 3-4: 3%
  Angiopathy, Grade 3-4: 1%
  Arthralgia, Grade 3-4: 0%
  Back pain, Grade 3-4: 0%
  Blood creatinine increased, Grade 3-4: 3%
  Bone pain, Grade 3-4: 1%
  Confusional state, Grade 3-4: 1%
  Constipation, Grade 3-4: 0%
  Decreased appetite, Grade 3-4: 1%
  Dehydration, Grade 3-4: 1%
  Depression, Grade 3-4: 0%
  Diarrhea, Grade 3-4: 11%
  Dysphonia, Grade 3-4: 0%
  Dyspnea, Grade 3-4: 6%
  Fatigue, Grade 3-4: 17%
  Hyperkalemia, Grade 3-4: 3%
  Hypertension, Grade 3-4: 21%
  Hypocalcemia, Grade 3-4: 0%
  Hypomagnesemia, Grade 3-4: 0%
  Hyponatremia, Grade 3-4: 8%
  Hypophosphatemia, Grade 3-4: 7%
  Hypotension, Grade 3-4: 1%
  Lung infection, Grade 3-4: 0%
  Lymphocyte count decreased, Grade 3-4: 6%
  Nausea, Grade 3-4: 4%
  Pain in extremity, Grade 3-4: 0%
  Pain, Grade 3-4: 0%
  Palmar-plantar erythrodysesthesia, Grade 3-4: 4%
  Patients discontinued due to an adverse reaction: 22%
  Patients with any Grade 3-4 Adverse Reaction: 65%
  Patients with dose held: 71%
  Patients with dose reduced: 35%
  Platelet count decreased, Grade 3-4: 11%
  Proteinuria, Grade 3-4: 1%
  Renal failure acute, Grade 3-4: 1%
  Skin ulcer, Grade 3-4: 0%
  Stomatitis, Grade 3-4: 6%
  Syncope, Grade 3-4: 0%
  Vomiting, Grade 3-4: 3%
  Weight decreased, Grade 3-4: 0%

## CNC(=O)c1cc(Oc2ccc(NC(=O)Nc3ccc(Cl)c(C(F)(F)F)c3)cc2)ccn1 [sorafenib]
[7]
  Objective responses: very few objective responses
  Overall survival: improves overall survival
